# Results published in patent US20100144591A1, “BENZIMIDAZOLE DERIVATIVES AND METHODS OF USE THEREOF” (Schering Corporation, priority 2007, published 2010).
# Test system: STZ-induced type 2 diabetic mice
# Assay: In vivo effect on glucose levels in diabetic mice
# Settings: 10 mg/kg/day in diet; relative to control mice and mice treated with rosiglitazone (5 mg/kg/day in diet)
# Protocol: The leftmost black solid bar represents diabetic control mice, the second from left black solid bar represents mice treated for one week with rosiglitazone at 5 mg/kg/day; the third from left black solid bar represents mice treated for one week with Compound 174 at 10 mg/kg/day; the fourth from left black solid bar represents mice treated for one week with Compound 174 at 1 mg/kg/day; and the white bar represents nondiabetic control mice. The y-axis indicates non-fasting glucose levels (mg/dl).
# Five-week-old male ICR mice were purchased from Taconic Farm (Germantown, N.Y.) and placed on a “western diet” containing 45% (kcal) fat from lard and 0.12% (w/w) cholesterol. After 3 weeks of feeding, the mice were injected once with low dose streptozocin (STZ, ip 75-100 mg/kg) to induce partial insulin deficiency. […] The diabetic mice were then placed in one of groups: (1) a non-treated diabetic control group, (2) a group treated with rosiglitazone (5 mg/kg/day in diet); (3) a group treated with Compound 174(10/mg/kg in diet) for four weeks; and (4) a group treated with Compound 174 (1/mg/kg in diet) for four weeks.
smiles,measurement,value
Nc1cc(CN2CCC(C(=O)N3CCC(n4c(-c5ccc(F)c(F)c5)nc5cccnc54)CC3)CC2)ccn1 [Compound 174],HbA1C levels,significantly reduced
same,non-fasting glucose levels,significantly reduced
